# Patent publication US8372855B2, “Cyclohexyloxy-substituted heterocyclics, medicines containing these compounds and method for the production thereof” (Boehringer Ingelheim International GmbH, priority 2008, dated 2013)
# Target: T1, human EGF-R (Homo sapiens, UniProt P00533)
# T1 construct: expressed in transfected cells
# Experiment: Inhibition of EGFR-dependent proliferation (EGF-stimulated murine haematopoietic cell line expressing human EGF-R, Cell Titer 96 AQueous assay)
# Type: cell-based
# Settings: 20 ng/ml human EGF, 48 hours at 37° C.
# Procedure: A murine haematopoietic cell line is genetically modified so as to express functional human EGF-R. The proliferation of this cell line can therefore be stimulated by EGF.
# The test is carried out as follows:
# The cells are cultivated in RPMI/1640 medium. The proliferation is stimulated with 20 ng/ml of human EGF (Promega). To investigate the inhibitory activity of the compounds according to the invention these compounds are dissolved in 100% dimethylsulphoxide (DMSO) and added to the cultures in various dilutions, the maximum DMSO concentration being 1%. The cultures are incubated for 48 hours at 37° C.
# In order to determine the inhibitory activity of the compounds according to the invention the relative cell number is measured in O.D. units using the Cell Titer 96™ AQueous Non-Radioactive Cell Proliferation Assay (Promega). The relative cell number is calculated as a percentage of the control and the concentration of active substance which inhibits the proliferation of the cells by 50% (IC50) is derived therefrom.
# T1 sequence (P00533 25-1210): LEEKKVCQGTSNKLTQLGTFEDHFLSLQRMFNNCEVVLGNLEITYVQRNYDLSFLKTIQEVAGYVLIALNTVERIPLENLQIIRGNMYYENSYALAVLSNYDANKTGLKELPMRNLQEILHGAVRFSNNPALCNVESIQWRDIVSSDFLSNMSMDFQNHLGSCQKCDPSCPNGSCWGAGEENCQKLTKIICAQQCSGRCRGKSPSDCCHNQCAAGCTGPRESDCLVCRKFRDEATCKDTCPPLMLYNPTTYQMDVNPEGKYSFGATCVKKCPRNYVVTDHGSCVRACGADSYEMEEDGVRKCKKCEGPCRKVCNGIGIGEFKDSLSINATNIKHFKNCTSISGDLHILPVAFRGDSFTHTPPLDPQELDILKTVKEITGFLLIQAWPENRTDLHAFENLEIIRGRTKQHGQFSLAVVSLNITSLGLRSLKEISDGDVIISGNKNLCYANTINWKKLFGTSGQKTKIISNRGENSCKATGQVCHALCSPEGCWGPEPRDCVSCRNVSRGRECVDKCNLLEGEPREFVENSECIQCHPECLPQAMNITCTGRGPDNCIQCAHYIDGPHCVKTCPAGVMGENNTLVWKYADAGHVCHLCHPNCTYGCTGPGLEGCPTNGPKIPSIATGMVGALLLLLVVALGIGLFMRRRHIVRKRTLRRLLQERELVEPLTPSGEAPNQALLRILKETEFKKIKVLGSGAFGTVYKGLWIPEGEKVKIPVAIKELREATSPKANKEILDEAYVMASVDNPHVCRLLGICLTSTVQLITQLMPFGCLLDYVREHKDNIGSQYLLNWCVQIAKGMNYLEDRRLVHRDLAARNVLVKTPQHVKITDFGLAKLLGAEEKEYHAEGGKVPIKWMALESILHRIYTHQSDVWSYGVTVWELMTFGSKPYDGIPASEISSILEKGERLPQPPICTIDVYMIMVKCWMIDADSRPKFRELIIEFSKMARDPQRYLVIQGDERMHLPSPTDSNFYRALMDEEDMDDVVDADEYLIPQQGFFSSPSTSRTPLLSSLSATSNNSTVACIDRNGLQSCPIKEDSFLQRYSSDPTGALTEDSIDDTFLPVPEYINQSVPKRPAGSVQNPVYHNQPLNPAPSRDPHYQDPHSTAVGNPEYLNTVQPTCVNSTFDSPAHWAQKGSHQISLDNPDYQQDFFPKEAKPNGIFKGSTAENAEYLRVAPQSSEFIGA
row,SMILES,IC50 [nM]
1,"COc1cc2ncnc(Nc3cccc(Cl)c3F)c2cc1O[C@H]1CC[C@@H](N2CCN(CC3CC3)C(=O)C2)CC1 [1(1), cis]",10.1
2,"COc1cc2ncnc(Nc3cccc(Cl)c3F)c2cc1O[C@H]1CC[C@H](N2CCN(CC3CC3)C(=O)C2)CC1 [1(1), trans]",1.7
3,"CCCCN1CCN([C@H]2CC[C@@H](Oc3cc4c(Nc5cccc(Cl)c5F)ncnc4cc3OC)CC2)CC1=O [1(2), cis]",12.1
4,"CCCCN1CCN([C@H]2CC[C@H](Oc3cc4c(Nc5cccc(Cl)c5F)ncnc4cc3OC)CC2)CC1=O [1(2), trans]",3.1
5,"COc1cc2ncnc(Nc3cccc(Cl)c3F)c2cc1O[C@H]1CC[C@@H](N2CCN(C3CCOCC3)C(=O)C2)CC1 [1(3), cis]",9.3
6,"COc1cc2ncnc(Nc3cccc(Cl)c3F)c2cc1O[C@H]1CC[C@H](N2CCN(C3CCOCC3)C(=O)C2)CC1 [1(3), trans]",1.6
7,"CCN1CCN([C@H]2CC[C@@H](Oc3cc4c(Nc5cccc(Cl)c5F)ncnc4cc3OC)CC2)CC1=O [1, cis]",7.1
8,"CCN1CCN([C@H]2CC[C@H](Oc3cc4c(Nc5cccc(Cl)c5F)ncnc4cc3OC)CC2)CC1=O [1, trans]",1.3
